Tests used:
Type in all cases: biochemical
[1] = target: T1, Lactoperoxidase (LPO) (Bos taurus, UniProt P80025); experiment: Ellman's reagent assay of OSCN- formation, […] nm
T1 construct: native enzyme from bovine milk, commercial lyophilisate (Sigma-Aldrich), heme-containing, mature secreted form

[2] = target: T1, Lactoperoxidase (LPO); experiment: Ellman's reagent assay of OSCN- formation, […] nm; remark: listed apart in the source
[3] = target: T1, Lactoperoxidase (LPO); experiment: stopped-flow spectrophotometry, reduction of LPO Compound II to native LPO; details: 1 µM LPO, 0.75 µM H2O2, 20 mM phosphate pH 6, 15 °C; one-electron donor in peroxidation cycle

SMILES | EC50 [1] | IC50 [2] | k (Compound II -> Native LPO) [3]
Oc1ccc(/C=C/c2cc(O)cc(O)c2)cc1 [b, Resveratrol] | 9 ± 2 nM | 423 ± 18 nM | 
Oc1cc(O)c2c(c1)O[C@H](c1ccc(O)c(O)c1)[C@H](O)C2 [a, (-)-Epicatechin] | 1310 ± 239 nM | 74100 ± 3620 nM | 
Cc1cc(O)c2c(c1)C(=O)c1cc(O)cc(O)c1C2=O [c, Emodin] |  |  | this compound may be a substrate for LPO Compound I and Compound II

From publication PMC8146912, “Phenolic Compounds of Reynoutria sp. as Modulators of Oral Cavity Lactoperoxidase System” (Antioxidants, 2021)
